One test addresses T1, GST tagged PIP4KtypeIIB (Homo sapiens, UniProt P78356).
T1 construct: made in house; host or cells: E. coli
T1 sequence (P78356 1-416): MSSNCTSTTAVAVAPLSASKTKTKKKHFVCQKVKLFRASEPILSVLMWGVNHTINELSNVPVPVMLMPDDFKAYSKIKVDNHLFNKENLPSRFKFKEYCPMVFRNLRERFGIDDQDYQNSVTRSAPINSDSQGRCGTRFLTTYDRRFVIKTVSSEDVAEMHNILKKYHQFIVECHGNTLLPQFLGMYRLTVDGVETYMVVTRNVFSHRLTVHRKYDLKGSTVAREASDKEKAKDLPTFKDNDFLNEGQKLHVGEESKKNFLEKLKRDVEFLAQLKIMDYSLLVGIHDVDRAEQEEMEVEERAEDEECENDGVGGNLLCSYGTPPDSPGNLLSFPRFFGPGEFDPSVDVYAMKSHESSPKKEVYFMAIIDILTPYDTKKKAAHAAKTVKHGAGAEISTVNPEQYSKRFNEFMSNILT
The test is described as follows: Trans-FI P kinase assay PIP4K2B (PIP4KtypeIIB inhibition assay). Type of test: biochemical. The following applies: Table 4; compounds listed under IC50 range headings; 100 uM GTP, 5 nM PIP4KIIB; read-out: Trans-FI P kinase assays: PIP4K2B IC50. In short, it runs like this: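 Purified GST-PIP4KIIB (5 nM final), 1 h preincubation with compound at 27 C, then 2 h reaction with 100 uM GTP and 80 uM PI5P plus DOPE carrier lipid in pH 7.3 HEPES/MgCl2/Triton buffer with 5% DMSO. GDP read by Transcreener FI fluorescence against a calibration curve; IC50 from % no-inhibitor activity vs log concentration.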

For test [1], the target named is T2, PIP4K2A (full length protein, SignalChem) (Homo sapiens, UniProt P48426).
T2 construct: 4 nM PIP4K2A (full length protein, SignalChem); purchased SignalChem
T2 sequence (P48426 1-406): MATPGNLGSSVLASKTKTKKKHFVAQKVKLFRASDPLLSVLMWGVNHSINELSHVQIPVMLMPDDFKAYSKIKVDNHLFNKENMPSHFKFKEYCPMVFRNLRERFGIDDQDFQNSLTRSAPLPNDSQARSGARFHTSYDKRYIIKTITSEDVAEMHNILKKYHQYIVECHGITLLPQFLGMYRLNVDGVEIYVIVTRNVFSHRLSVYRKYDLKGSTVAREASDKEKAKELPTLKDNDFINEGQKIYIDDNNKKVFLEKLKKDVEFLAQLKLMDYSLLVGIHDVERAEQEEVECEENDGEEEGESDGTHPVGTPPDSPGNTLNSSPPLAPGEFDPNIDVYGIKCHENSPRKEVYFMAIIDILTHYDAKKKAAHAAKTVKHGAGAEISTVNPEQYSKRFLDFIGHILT
Put plainly: Kinase Assay PIP4K2 A (Sprint); ADP-Glo biochemical assay. The following applies: Table 2; compounds listed under IC50 range headings. The method, boiled down:
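Compounds (10-point, 3-fold dilutions) were pre-incubated 15 min at RT with an enzyme/substrate mix of 4 nM full-length PIP4K2A and 100 μM PI(5)P diC8 in 20 mM MOPS pH 7.2, 25 mM MgCl2, 0.005% Tween 20. A 60 μM ATP solution was added, reaction 1 h RT; ADP read by ADP-Glo luminescence, IC50 fitted from % inhibition vs DMSO.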
(ADP-Glo first removes unused ATP, then detects ADP through luciferase.)

For a further test, the target named is T3, GST tagged PIP4KtypeIIA (Homo sapiens, UniProt P48426).
T3 construct: made in house; host or cells: E. coli
T3 sequence (P48426 1-406): T2 sequence (P48426 1-406)
Put plainly: ADP-glo kinase assay PIP4K 2A (PIP4KtypeIIA inhibition assay). Type of test: biochemical. To be noted: Table 3; compounds listed under IC50 range headings; 10 uM ATP, 0.5 nM PIP4KIIA. In short, it runs like this:
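E. coli-expressed GST-PIP4KtypeIIA (0.5 nM final) was preincubated 1 h at 27 °C with compound (up to 4.8 μM, 5% DMSO) in PI5P/DOPE lipid in 50 mM HEPES pH 7.3 with 10 mM MgCl2. The reaction was started with 10 μM ATP (final) and run 1 h. ADP was read by ADP-Glo luminescence via a calibration curve, and IC50 was taken from % residual activity.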

A value given as a limit tells only on which side of the number the result lay.

One may read the IC50 as the point on the concentration scale where inhibition reaches its midpoint. Turning to `O=C1CCCN1c1ccc(-c2cncc(-c3ccc(=O)[nH]c3)c2)cc1` [Example 36, 5′-(4-(2-oxopyrrolidin-1-yl)phenyl)-[3,3′-bipyridin]-6(1H)-one], the IC50 on GST tagged PIP4KtypeIIB was 2500 to 5000 nM; in test [1], 1000 to 2500 nM; against GST tagged PIP4KtypeIIA, above 5000 nM.
On the same counts, the results for `O=C1CCCN1c1ccc(-c2cncc(-c3c(OC4CCCNC4)cnc4[nH]ccc34)c2)cc1` (stereo not drawn) [Example 66, 1-(4-(5-(5-(piperidin-3-yloxy)-1H-pyrrolo[2,3-b]pyridin-4-yl)pyridin-3-yl)phenyl)pyrrolidin-2-one] are above 5000 nM, below 5000 nM and above 5000 nM.
On the same counts, the results for `CNC(=O)c1cc2c(-c3cncc(-c4ccc(N5CCCC5=O)cc4C)c3)ccnc2o1` [Example 170, N-methyl-4-(5-(2-methyl-4-(2-oxopyrrolidin-1-yl)phenyl)pyridin-3-yl)furo[2,3-b]pyridine-2-carboxamide] are 100 to 1000 nM, 5 to 100 nM and 100 to 1000 nM.
Take `Cc1cc(N2CCCC2=O)ccc1-c1cncc(-c2ccnc3[nH]c(C(=O)N(C)C)cc23)c1` [Example 169, N,N-dimethyl-4-(5-(2-methyl-4-(2-oxopyrrolidin-1-yl)phenyl)pyridin-3-yl)-1H-pyrrolo[2,3-b]pyridine-2-carboxamide]: the half-maximal inhibitory concentration (IC50) on GST tagged PIP4KtypeIIB lay within 100 to 1000 nM; in test [1] it was 100 to 1000 nM; against GST tagged PIP4KtypeIIA it was 1000 to 2500 nM.
In the case of `CC(O)c1cnc2c(c1)c(-c1cncc(-c3ccc(N4CCCC4=O)cc3)c1)cn2C` (stereo not drawn) [Example 62, 1-(4-(5-(5-(1-hydroxyethyl)-1-methyl-1H-pyrrolo[2,3-b]pyridin-3-yl)pyridin-3-yl)phenyl)pyrrolidin-2-one], the figures for the IC50 (on GST tagged PIP4KtypeIIB; in test [1]; against GST tagged PIP4KtypeIIA) were 1000 to 2500 nM, 5 to 100 nM and 100 to 1000 nM, respectively.
The corresponding values for `CNC(=O)c1cnc2c(c1)c(-c1cncc(-c3ccc(N4CCCC4=O)cc3)c1)cn2C` [Example 60, N,1-dimethyl-3-(5-(4-(2-oxopyrrolidin-1-yl)phenyl)pyridin-3-yl)-1H-pyrrolo[2,3-b]pyridine-5-carboxamide] are 100 to 1000 nM, 5 to 100 nM and 100 to 1000 nM.
On to `Cn1cc(-c2cncc(-c3ccc(N4CCCC4=O)cc3)c2)c2cc(N3CCNCC3)cnc21` [Example 56, 1-(4-(5-(1-methyl-5-(piperazin-1-yl)-1H-pyrrolo[2,3-b]pyridin-3-yl)pyridin-3-yl)phenyl)pyrrolidin-2-one], for which the IC50 at GST tagged PIP4KtypeIIB lay in the range of 2500 to 5000 nM; in test [1], 100 to 1000 nM; on GST tagged PIP4KtypeIIA, 1000 to 2500 nM.
On the same counts, the results for `CN(C)C(=O)c1ccc(-c2cncc(-c3ccnc(C(=O)N(C)C)c3)c2)cc1` [Example 9, 5-(4-(dimethylcarbamoyl)phenyl)-N,N-dimethyl-[3,4′-bipyridine]-2′-carboxamide] are above 5000 nM, below 5000 nM and above 5000 nM.
On the same counts, the results for `Cc1c(-c2cncc(-c3ccc(N4CCCC4=O)cc3)c2)c2cc(C(=O)N(C)C)cnc2n1C` [Example 249, N,N,1,2-tetramethyl-3-(5-(4-(2-oxopyrrolidin-1-yl)phenyl)pyridin-3-yl)-1H-pyrrolo[2,3-b]pyridine-5-carboxamide] are 100 to 1000 nM, 5 to 100 nM and 100 to 1000 nM.
`CC(=O)N(C)c1cc(-c2cncc(-c3ccc(N4CCCC4=O)cc3)c2)ccn1` [Example 57, N-methyl-N-(5-(4-(2-oxopyrrolidin-1-yl)phenyl)-[3,4′-bipyridin]-2′-yl)acetamide]: the concentration for half-maximal inhibition (IC50) at GST tagged PIP4KtypeIIB was above 5000 nM; in test [1], below 5000 nM; against GST tagged PIP4KtypeIIA it was above 5000 nM.
Take `CN(C)C(=O)c1ccc(-c2cncc(-c3ccnc4ccncc34)c2)cc1` [Example 7, 4-(5-(1,6-naphthyridin-4-yl)pyridin-3-yl)-N,N-dimethylbenzamide]: the IC50 is above 5000 nM on GST tagged PIP4KtypeIIB, 2500 to 5000 nM in test [1] and above 5000 nM against GST tagged PIP4KtypeIIA.
Regarding `O=C1CCCN1c1ccc(-c2cncc(-c3ccncc3)c2)cc1` [Example 41, 1-[4-[5-(4-Pyridyl)-3-pyridyl]phenyl]pyrrolidin-2-one], the IC50 at GST tagged PIP4KtypeIIB is above 5000 nM; in test [1] it was 1000 to 2500 nM; against GST tagged PIP4KtypeIIA, above 5000 nM.
For `CC(C)Cn1cc(-c2cncc(-c3ccc(N4CCCC4=O)cc3)c2)c2cn[nH]c2c1=O` [Example 68, 6-isobutyl-4-(5-(4-(2-oxopyrrolidin-1-yl)phenyl)pyridin-3-yl)-1,6-dihydro-7H-pyrazolo[3,4-c]pyridin-7-one], the results for the IC50 (at GST tagged PIP4KtypeIIB; in test [1]; against GST tagged PIP4KtypeIIA) were 10 to 100 nM, 5 to 100 nM and 10 to 100 nM, respectively.
With `CN(C)C(=O)c1ccc(-c2cc(-c3ccnc4ncccc34)cnc2N)nc1` [Example 111, 2′-amino-N,N-dimethyl-5′-(1,8-naphthyridin-4-yl)-[2,3′-bipyridine]-5-carboxamide], the IC50 (at GST tagged PIP4KtypeIIB; in test [1]; against GST tagged PIP4KtypeIIA) was 100 to 1000 nM each time.
For `Nc1ncc(-c2ccnc3[nH]c(C(=O)NCc4ccccc4)cc23)cc1-c1ccc(C(=O)NCc2ccccc2)cn1` [Example 221, 4-(2′-amino-5-(benzylcarbamoyl)-[2,3′-bipyridin]-5′-yl)-N-benzyl-1H-pyrrolo[2,3-b]pyridine-2-carboxamide], the IC50 on GST tagged PIP4KtypeIIB was 1000 to 2500 nM; in test [1], below 5000 nM; on GST tagged PIP4KtypeIIA, above 5000 nM.
The corresponding values for `CN(C)C(=O)c1ccc(-c2cc(-c3ccnc4[nH]c(C(=O)N5CCNCC5)cc34)cnc2N)nc1` [Example 140, 2′-amino-N,N-dimethyl-5′-(2-(piperazine-1-carbonyl)-1H-pyrrolo[2,3-b]pyridin-4-yl)-[2,3′-bipyridine]-5-carboxamide] are 100 to 1000 nM, 100 to 1000 nM and 100 to 1000 nM.
On the same counts, the results for `O=C1CCCN1c1ccc(-c2cncc(-n3cnc4ccccc43)c2)cc1` [Example 177, 1-(4-(5-(1H-benzo[d]imidazol-1-yl)pyridin-3-yl)phenyl)pyrrolidin-2-one] are 100 to 1000 nM, 100 to 1000 nM and 100 to 1000 nM.
On the same counts, the results for `CN(C)C(=O)c1ccc(-c2cc(-c3ccnc4[nH]c(C(=O)NCc5ccccc5)cc34)cnc2N)nc1` [Example 134, 4-(2′-amino-5-(dimethylcarbamoyl)-[2,3′-bipyridin]-5′-yl)-N-benzyl-1H-pyrrolo[2,3-b]pyridine-2-carboxamide] are 10 to 100 nM, 5 to 100 nM and 100 to 1000 nM.
Take `Nc1ncc(-c2ccnc3c2cc2n3CCN(CC3CC3)C2=O)cc1-c1ccc(N2CCCC2=O)cc1` [Example 88, 4-(6-amino-5-(4-(2-oxopyrrolidin-1-yl)phenyl)pyridin-3-yl)-7-(cyclopropylmethyl)-8,9-dihydropyrido[3′,2′:4,5]pyrrolo[1,2-a]pyrazin-6(7H)-one]: the figures for the half-inhibitory concentration (IC50) (at GST tagged PIP4KtypeIIB; in test [1]; at GST tagged PIP4KtypeIIA) were 1 to 10 nM, 5 to 100 nM and 10 to 100 nM, respectively.
The corresponding values for `CN(C)C/C=C/C(=O)Nc1cccc(CCC(=O)NCc2cc(-c3cnc(N)c(-c4ccc(C(=O)N(C)C)cn4)c3)ccn2)c1` [Example 195, (E)-2′-amino-2″-((3-(3-(4-(dimethylamino)but-2-enamido)phenyl)propanamido)methyl)-N,N-dimethyl-[2,3′:5′,4″-terpyridine]-5-carboxamide] are 2500 to 5000 nM, below 5000 nM and above 5000 nM.
In the case of `CC(C)OC(=O)c1cc2c(-c3cncc(-c4ccc(N5CCCC5=O)cc4)c3)ccnc2o1` [Example 167, isopropyl 4-(5-(4-(2-oxopyrrolidin-1-yl)phenyl)pyridin-3-yl)furo[2,3-b]pyridine-2-carboxylate], the IC50 lay within 10 to 100 nM at GST tagged PIP4KtypeIIB, 5 to 100 nM in test [1] and 10 to 100 nM at GST tagged PIP4KtypeIIA.

The values are drawn from patent publication US11919902B2, “Aryl-bipyridine amine derivatives as phosphatidylinositol phosphate kinase inhibitors” (HiberCell, Inc., priority 2017, dated 2024).
